Measured values reported in patent publication US9884818B2, “Sulphamoylpyrrolamide derivatives and the use thereof as medicaments for the treatment of hepatitis B” (Janssen Sciences Ireland UC, priority 2013, dated 2018).

How the values were obtained:
HBV [1] = assay: Anti-HBV activity, HepG2.2.15 stable transfected cell line, HBV DNA from secreted virions by realtime PCR; assay type: cell-based; conditions: Hepatitis B virus, HepG2.2.15, 144 h, HepG2.2.15 cells, 6 days of treatment, HBV DNA from secreted virions; read-out: HepG2 2.15 EC50
HBV [2] = assay: Anti-HBV activity, HepG2.117 inducibly HBV producing cell line (Tet-off), intracellular HBV DNA by realtime PCR; assay type: cell-based; conditions: Hepatitis B virus, HepG2.117, 72 h, HepG2.117 cells, 3 days of treatment, intracellular HBV DNA; read-out: HepG2 117 EC50
[3] = Cytotoxicity in HepG2 cells, Resazurin viability assay; conditions: human, HepG2 cells, HepG2 4 days CC50 (μM), incubated for 4 days, Resazurin assay

SMILES | EC50 (HBV [1]) | EC50 (HBV [2]) | CC50 at 4 days [3]
Cn1cc(S(=O)(=O)NC2(C(F)(F)F)CC2)cc1C(=O)Nc1ccc(F)c(C#N)c1 [Compound 227, N-(3-Cyano-4-fluorophenyl)-1-methyl-4-{[1-(trifluoromethyl)cyclopropyl]sulfamoyl}-1H-pyrrole-2-carboxamide] | 0.02 µM | 0.04 µM | > 25 µM
Cc1c(S(=O)(=O)N[C@H](C)C(F)(F)F)cn(C)c1C(=O)Nc1ccc(F)c(Cl)c1 [Compound 145, N-(3-Chloro-4-fluorophenyl)-1,3-dimethyl-4-{[(1R)-2,2,2-trifluoro-1-methylethyl]sulfamoyl}-1H-pyrrole-2-carboxamide] | 0.04 µM | 0.03 µM | > 25 µM
Cn1cc(S(=O)(=O)NC2(C(N)=O)CC2)cc1C(=O)Nc1cc(F)c(F)c(Cl)c1 [Compound 114, 4-[(1-Carbamoylcyclopropyl)sulfamoyl]-N-(3-chloro-4,5-difluorophenyl)-1-methyl-1H-pyrrole-2-carboxamide] | 0.1 µM | 0.05 µM | > 25 µM
C[C@@H](NS(=O)(=O)c1cc(C(=O)Nc2cc(F)c(F)c(Br)c2)n(C)c1)C(F)(F)F [Compound 205, N-(3-Bromo-4,5-difluorophenyl)-1-methyl-4-{[(1R)-2,2,2-trifluoro-1-methylethyl]sulfamoyl}-1H-pyrrole-2-carboxamide] | 0.08 µM | 0.03 µM | 13 µM
[2H]c1cc(F)c(C)c([2H])c1NC(=O)c1cc(S(=O)(=O)NC(C)(C)C)cn1C [Compound 67, 4-(tert-butylsulfamoyl)-N-(2,6-dideuterio-4-fluoro-3-methyl-phenyl)-1-methyl-pyrrole-2-carboxamide] | 0.02 µM | 0.03 µM | > 25 µM
C[C@H](NS(=O)(=O)c1cc(C(=O)Nc2cccc(C#N)c2F)n(C)c1)C(F)(F)F [Compound 198, N-(3-Cyano-2-fluorophenyl)-1-methyl-4-{[(1S)-2,2,2-trifluoro-1-methylethyl]sulfamoyl}-1H-pyrrole-2-carboxamide] | 0.15 µM | 0.08 µM | > 25 µM
C[C@@H](NS(=O)(=O)c1cc(C(=O)Nc2cccc(C(F)(F)F)c2F)n(C)c1)C(F)(F)F [Compound 159, N-[2-Fluoro-3-(trifluoromethyl)phenyl]-1-methyl-4-{[(1R)-2,2,2-trifluoro-1-methylethyl]sulfamoyl}-1H-pyrrole-2-carboxamide] | 0.09 µM | 0.81 µM | > 25 µM
C[C@H](NS(=O)(=O)c1cc(C(=O)Nc2ccc(F)c(Br)c2)n(C)c1)C(F)(F)F [Compound 101, N-(3-Bromo-4-fluorophenyl)-1-methyl-4-{[(1S)-2,2,2-trifluoro-1-methylethyl]sulfamoyl}-1H-pyrrole-2-carboxamide] | 0.03 µM | 0.03 µM | > 25 µM
Cc1cc(NC(=O)c2cc(S(=O)(=O)NC3(C)CCOC3)cn2C)ccc1F (stereo not drawn) [Compound 11, N-(4-fluoro-3-methyl-phenyl)-1-methyl-4-[(3-methyltetrahydrofuran-3-yl)sulfamoyl]pyrrole-2-carboxamide] | 0.03 µM | 0.02 µM | > 25 µM
Cn1cc(S(=O)(=O)NC(C)(C)CCO)cc1C(=O)Nc1ccc(F)c(C#N)c1 [Compound 296, N-(3-cyano-4-fluoro-phenyl)-4-[(3-hydroxy-1,1-dimethyl-propyl)sulfamoyl]-1-methyl-pyrrole-2-carboxamide] | 0.1 µM | 0.23 µM | > 25 µM
Cn1cc(S(=O)(=O)NC2(C)COC2)cc1C(=O)Nc1ccc(F)c(OC(F)(F)F)c1 [Compound 86, N-[4-Fluoro-3-(trifluoromethoxy)phenyl]-1-methyl-4-[(3-methyloxetan-3-yl)sulfamoyl]-1H-pyrrole-2-carboxamide] | 0.37 µM | 0.35 µM | > 25 µM
Cn1cc(S(=O)(=O)NC2(C)CC2)cc1C(=O)Nc1ccc(F)c(Cl)c1F [Compound 255, N-(3-chloro-2,4-difluoro-phenyl)-1-methyl-4-[(1-methylcyclopropyl)-sulfamoyl]-1H-pyrrole-2-carboxamide] | 0.09 µM | 0.1 µM | > 25 µM
C[C@@H](NS(=O)(=O)c1cc(C(=O)Nc2c(F)ccc(Cl)c2F)n(C)c1)C(F)(F)F [Compound 204, N-(3-Chloro-2,6-difluorophenyl)-1-methyl-4-{[(1R)-2,2,2-trifluoro-1-methylethyl]sulfamoyl}-1H-pyrrole-2-carboxamide] | 0.65 µM | 0.62 µM | > 25 µM
C[C@@H](NS(=O)(=O)c1cc(C(=O)Nc2ccc(F)c(Br)c2)n(C)c1)C(F)(F)F [Compound 124, N-(3-Bromo-4-fluorophenyl)-1-methyl-4-{[(1R)-2,2,2-trifluoro-1-methylethyl]sulfamoyl}-1H-pyrrole-2-carboxamide] | 0.04 µM | 0.04 µM | > 25 µM
Cn1cc(S(=O)(=O)NC2(C)COC2)c(F)c1C(=O)Nc1cccc(Br)c1 [Compound 251, N-(3-Bromophenyl)-3-fluoro-1-methyl-4-[(3-methyloxetan-3-yl)sulfamoyl]-1H-pyrrole-2-carboxamide] | 0.01 µM | 0.06 µM | > 25 µM
Cn1cc(S(=O)(=O)NCC(F)F)cc1C(=O)Nc1cc(F)c(F)c(Cl)c1 [Compound 130, N-(3-Chloro-4,5-difluorophenyl)-4-[(2,2-difluoroethyl)sulfamoyl]-1-methyl-1H-pyrrole-2-carboxamide] | 0.09 µM | 0.15 µM | > 25 µM
CC(C)NS(=O)(=O)c1cn(C)c(C(=O)Nc2ccc(F)c(F)c2)c1F [Compound 232, N-(3,4-Difluorophenyl)-3-fluoro-1-methyl-4-[(1-methylethyl)sulfamoyl]-1H-pyrrole-2-carboxamide] | 0.02 µM | 0.02 µM | > 25 µM
C[C@@H](NS(=O)(=O)c1cn(C)c(C(=O)Nc2ccc(F)c(F)c2)c1Cl)C(F)(F)F [Compound 217, 3-Chloro-N-(3,4-difluorophenyl)-1-methyl-4-{[(1R)-2,2,2-trifluoro-1-methylethyl]sulfamoyl}-1H-pyrrole-2-carboxamide] | 0.005 µM | 0.005 µM | > 25 µM
CC[C@@H](NS(=O)(=O)c1cc(C(=O)Nc2ccc(F)c(Cl)c2F)n(C)c1)C(F)(F)F [Compound 265, N-(3-chloro-2,4-difluoro-phenyl)-1-methyl-4-{[(1R)-1-(trifluoro-methyl)propyl]sulfamoyl}-1H-pyrrole-2-carboxamide] | 0.01 µM | 0.03 µM | > 25 µM
C[C@H](NS(=O)(=O)c1cc(C(=O)Nc2ccc(F)c(Br)c2F)n(C)c1)C(F)(F)F [Compound 155, N-(3-Bromo-2,4-difluorophenyl)-1-methyl-4-{[(1S)-2,2,2-trifluoro-1-methylethyl]sulfamoyl}-1H-pyrrole-2-carboxamide] | 0.03 µM | 0.05 µM | > 25 µM
Cn1cc(S(=O)(=O)NC2(C(F)(F)F)CC2)cc1C(=O)Nc1ccc(F)c(Cl)c1F [Compound 253, N-(3-chloro-2,4-difluoro-phenyl)-1-methyl-4-{[1-(trifluoromethyl)-cyclopropyl]sulfamoyl}-1H-pyrrole-2-carboxamide] | 0.01 µM | 0.01 µM | > 25 µM
